As usually defined, the IC50 is the concentration at which inhibition is half-maximal.

Like-named read-outs stand apart in the source and are kept apart here.

This note sets out measurements from patent US8889712B2, “IAP antagonists” (Bristol-Myers Squibb Company, priority 2012, dated 2014).

One experiment addresses T1, XIAP BIR3 (Homo sapiens, UniProt P98170).
T1 construct: His-BIR3 (241-356, XIAP)
The experiment is described as follows: XIAP-BIR3/SMAC Homogeneous Time Resolved Fluorescence (HTRF) Assay. The experiment is classed as binding. The essentials:
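Competition HTRF between XIAP-BIR3 and SMAC; reaction 60 min at room temperature, then anti-6×His-terbium Fab detection for a further 30 min.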

In a further experiment the target is T2, XIAP BIR2-3 (Homo sapiens, UniProt P98170, C202A/C213G).
T2 construct: His-BIR2-3 (125-356, C202A/C213G, XIAP)
T2 sequence (P98170 125-356 C202A/C213G): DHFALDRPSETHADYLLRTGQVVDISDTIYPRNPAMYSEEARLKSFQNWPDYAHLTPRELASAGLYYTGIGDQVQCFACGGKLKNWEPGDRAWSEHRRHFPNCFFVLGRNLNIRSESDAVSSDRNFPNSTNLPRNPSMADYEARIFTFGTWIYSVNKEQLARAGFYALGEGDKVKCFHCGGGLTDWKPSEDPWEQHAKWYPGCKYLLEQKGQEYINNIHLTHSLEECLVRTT
Nature of the experiment: XIAP-BIR2-3 dimeric SMAC Peptide Homogeneous Time Resolved Fluorescence (HTRF) Assay. The class given is binding. The protocol: B. […] Assays were performed in black, flat-bottom, 384-well plates. […] Compounds were dissolved at 3 mM in dimethylsulfoxide (DMSO) and evaluated at eleven serially diluted concentrations. IC50 and Ki values were derived by non-linear regression analysis.
Background: Time-resolved FRET reads energy transfer from a long-lived donor to a nearby acceptor.

Where [1] appears, read: 1 nM N-His-BIR3 (241-356, XIAP), 5 nM fluorescein labeled SMAC peptide, HTRF signal, read-out: XIAP BIR3 IC50.
The mark [2] stands for this setting: 0.5 nM N-His-BIR2-3 (125-356, C202A/C213G, XIAP), 20 nM fluorescein labeled dimeric SMAC peptide, HTRF signal, read-out: XIAP BIR2-3 IC50.

T1 sequence (P98170 241-356): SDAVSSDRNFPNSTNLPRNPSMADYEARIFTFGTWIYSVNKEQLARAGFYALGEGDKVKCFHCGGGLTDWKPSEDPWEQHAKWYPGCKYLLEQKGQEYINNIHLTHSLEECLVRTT

Take `CCNC(=O)[C@H](Cc1ccccc1)NC(=O)[C@@H]1C[C@H](c2ccc3c(c2)CN(C(=O)[C@@H](NC(=O)[C@H](C)NC)C(C)(C)C)[C@H](C(=O)N[C@@H]2CCCc4ccccc42)C3)CN1C(=O)[C@@H](NC(=O)[C@H](C)NC)C(C)(C)C` [Example 51, (S)-2-((S)-3,3-Dimethyl-2-((S)-2-(methylamino)propanamido)butanoyl)-7-((3R,5S)-1-((S)-3,3-dimethyl-2-((S)-2-(methylamino)propanamido)butanoyl)-5-(((S)-1-(ethylamino)-1-oxo-3-phenylpropan-2-yl)carbamoyl)pyrrolidin-3-yl)-N-((R)-1,2,3,4-tetrahydronaphthalen-1-yl)-1,2,3,4-tetrahydroisoquinoline-3-carboxamide]: the IC50 on XIAP BIR3 (setting [1]) is 19.4 nM; on XIAP BIR2-3 (setting [2]), 9.6 nM.
On to `CN[C@@H](C)C(=O)N[C@H](C(=O)N1C[C@@H](c2ccc3c(c2)CN(C(=O)[C@@H](NC(=O)[C@H](C)NC)C(C)(C)C)[C@H](C(=O)N[C@@H]2CCCc4ccccc42)C3)C[C@H]1C(=O)N[C@@H](Cc1ccccc1)C(=O)Nc1nncs1)C(C)(C)C` [Example 52, (S)-7-((3R,5S)-5-(((S)-1-((1,3,4-Thiadiazol-2-yl)amino)-1-oxo-3-phenylpropan-2-yl)carbamoyl)-1-((S)-3,3-dimethyl-2-((S)-2-(methylamino)propanamido)butanoyl)pyrrolidin-3-yl)-2-((S)-3,3-dimethyl-2-((S)-2-(methylamino)propanamido)butanoyl)-N-((R)-1,2,3,4-tetrahydronaphthalen-1-yl)-1,2,3,4-tetrahydroisoquinoline-3-carboxamide], for which the IC50 was found to be 3.4 nM at XIAP BIR3 (setting [1]) and 1.2 nM at XIAP BIR2-3 (setting [2]).
Regarding `CN[C@@H](C)C(=O)N[C@H](C(=O)N1C[C@@H](c2ccc3c(c2)CN(C(=O)[C@@H](NC(=O)[C@H](C)NC)C(C)(C)C)[C@H](C(=O)N[C@@H]2CCCc4ccccc42)C3)C[C@H]1C(=O)N[C@@H](Cc1ccccc1)C(=O)N(C)CCC(C)C)C(C)(C)C` [Example 53, (S)-2-((S)-3,3-Dimethyl-2-((S)-2-(methylamino)propanamido)butanoyl)-7-((3R,5S)-1-((S)-3,3-dimethyl-2-((S)-2-(methylamino)propanamido)butanoyl)-5-(((S)-1-(isopentyl(methyl)amino)-1-oxo-3-phenylpropan-2-yl)carbamoyl)pyrrolidin-3-yl)-N-((R)-1,2,3,4-tetrahydronaphthalen-1-yl)-1,2,3,4-tetrahydroisoquinoline-3-carboxamide], the values for the IC50 on XIAP BIR3 (setting [1]) and at XIAP BIR2-3 (setting [2]) were 53.9 nM and 86.9 nM, respectively.
The matching figures for `CN[C@@H](C)C(=O)N[C@H](C(=O)N1C[C@@H](c2ccc3c(c2)CN(C(=O)[C@@H](NC(=O)[C@H](C)NC)C(C)(C)C)[C@H](C(=O)N[C@@H]2CCCc4ccccc42)C3)C[C@H]1C(=O)N[C@@H](Cc1ccccc1)C(=O)N(C)CCc1ccccn1)C(C)(C)C` [Example 54, (S)-2-((S)-3,3-Dimethyl-2-((S)-2-(methylamino)propanamido)butanoyl)-7-((3R,5S)-1-((S)-3,3-dimethyl-2-((S)-2-(methylamino)propanamido)butanoyl)-5-(((S)-1-(methyl(2-(pyridin-2-yl)ethyl)amino)-1-oxo-3-phenylpropan-2-yl)carbamoyl)pyrrolidin-3-yl)-N-((R)-1,2,3,4-tetrahydronaphthalen-1-yl)-1,2,3,4-tetrahydroisoquinoline-3-carboxamide]: 6.8 nM and 2.9 nM.
For `CN[C@@H](C)C(=O)N[C@H](C(=O)N1C[C@@H](c2ccc3c(c2)CN(C(=O)[C@@H](NC(=O)[C@H](C)NC)C(C)(C)C)[C@H](C(=O)N[C@@H]2CCCc4ccccc42)C3)C[C@H]1C(=O)N[C@@H](Cc1ccccc1)C(=O)N(C)CCOC)C(C)(C)C` [Example 55, (S)-2-((S)-3,3-Dimethyl-2-((S)-2-(methylamino)propanamido)butanoyl)-7-((3R,5S)-1-((S)-3,3-dimethyl-2-((S)-2-(methylamino)propanamido)butanoyl)-5-(((S)-1-((2-methoxyethyl)(methyl)amino)-1-oxo-3-phenylpropan-2-yl)carbamoyl)pyrrolidin-3-yl)-N-((R)-1,2,3,4-tetrahydronaphthalen-1-yl)-1,2,3,4-tetrahydroisoquinoline-3-carboxamide], the IC50 at XIAP BIR3 (setting [1]) was 37.7 nM; on XIAP BIR2-3 (setting [2]), 8.5 nM.
Consider `CN[C@@H](C)C(=O)N[C@H](C(=O)N1C[C@@H](c2ccc3c(c2)CN(C(=O)[C@@H](NC(=O)[C@H](C)NC)C(C)(C)C)[C@H](C(=O)N[C@@H]2CCCc4ccccc42)C3)C[C@H]1C(=O)N[C@@H](Cc1ccccc1)C(=O)NC(C)C)C(C)(C)C` [Example 56, (S)-2-((S)-3,3-Dimethyl-2-((S)-2-(methylamino)propanamido)butanoyl)-7-((3R,5S)-1-((S)-3,3-dimethyl-2-((S)-2-(methylamino)propanamido)butanoyl)-5-(((S)-1-(isopropylamino)-1-oxo-3-phenylpropan-2-yl)carbamoyl)pyrrolidin-3-yl)-N-((R)-1,2,3,4-tetrahydronaphthalen-1-yl)-1,2,3,4-tetrahydroisoquinoline-3-carboxamide], for which the values for the IC50 on XIAP BIR3 and at XIAP BIR2-3 were 8.8 nM and 2 nM, respectively.
For `CN[C@@H](C)C(=O)N[C@H](C(=O)N1C[C@@H](c2ccc3c(c2)CN(C(=O)[C@@H](NC(=O)[C@H](C)NC)C(C)(C)C)[C@H](C(=O)N[C@@H]2CCCc4ccccc42)C3)C[C@H]1C(=O)N[C@@H](Cc1ccccc1)C(=O)Nc1ccc(-c2cnco2)cc1)C(C)(C)C` [Example 57, (S)-2-((S)-3,3-Dimethyl-2-((S)-2-(methylamino)propanamido)butanoyl)-7-((3R,5S)-1-((S)-3,3-dimethyl-2-((S)-2-(methylamino)propanamido)butanoyl)-5-(((S)-1-((4-(oxazol-5-yl)phenyl)amino)-1-oxo-3-phenylpropan-2-yl)carbamoyl)pyrrolidin-3-yl)-N-((R)-1,2,3,4-tetrahydronaphthalen-1-yl)-1,2,3,4-tetrahydroisoquinoline-3-carboxamide], the IC50 came out at 9.9 nM at XIAP BIR3 (setting [1]) and 2.6 nM on XIAP BIR2-3 (setting [2]).
The matching figures for `CN[C@@H](C)C(=O)N[C@H](C(=O)N1C[C@@H](c2ccc3c(c2)CN(C(=O)[C@@H](NC(=O)[C@H](C)NC)C(C)(C)C)[C@H](C(=O)N[C@@H]2CCCc4ccccc42)C3)C[C@H]1C(=O)N[C@@H](Cc1ccccc1)C(=O)Nc1cccc(-c2cnco2)c1)C(C)(C)C` [Example 58, (S)-2-((S)-3,3-Dimethyl-2-((S)-2-(methylamino)propanamido)butanoyl)-7-((3R,5S)-1-((S)-3,3-dimethyl-2-((S)-2-(methylamino)propanamido)butanoyl)-5-(((S)-1-((3-(oxazol-5-yl)phenyl)amino)-1-oxo-3-phenylpropan-2-yl)carbamoyl)pyrrolidin-3-yl)-N-((R)-1,2,3,4-tetrahydronaphthalen-1-yl)-1,2,3,4-tetrahydroisoquinoline-3-carboxamide]: 7.6 nM and 2.3 nM.
